# Measurements: patent publication US9382197B2, “Substituted hydroxamic acids and uses thereof” (Millennium Pharmaceuticals, Inc., priority 2010, dated 2016)
# Molecular target: T1, purified human HDAC6 (Homo sapiens, UniProt Q9UBN7)
# T1 construct: purchased BPS Bioscience 5006
# T1 sequence (Q9UBN7 1-1215): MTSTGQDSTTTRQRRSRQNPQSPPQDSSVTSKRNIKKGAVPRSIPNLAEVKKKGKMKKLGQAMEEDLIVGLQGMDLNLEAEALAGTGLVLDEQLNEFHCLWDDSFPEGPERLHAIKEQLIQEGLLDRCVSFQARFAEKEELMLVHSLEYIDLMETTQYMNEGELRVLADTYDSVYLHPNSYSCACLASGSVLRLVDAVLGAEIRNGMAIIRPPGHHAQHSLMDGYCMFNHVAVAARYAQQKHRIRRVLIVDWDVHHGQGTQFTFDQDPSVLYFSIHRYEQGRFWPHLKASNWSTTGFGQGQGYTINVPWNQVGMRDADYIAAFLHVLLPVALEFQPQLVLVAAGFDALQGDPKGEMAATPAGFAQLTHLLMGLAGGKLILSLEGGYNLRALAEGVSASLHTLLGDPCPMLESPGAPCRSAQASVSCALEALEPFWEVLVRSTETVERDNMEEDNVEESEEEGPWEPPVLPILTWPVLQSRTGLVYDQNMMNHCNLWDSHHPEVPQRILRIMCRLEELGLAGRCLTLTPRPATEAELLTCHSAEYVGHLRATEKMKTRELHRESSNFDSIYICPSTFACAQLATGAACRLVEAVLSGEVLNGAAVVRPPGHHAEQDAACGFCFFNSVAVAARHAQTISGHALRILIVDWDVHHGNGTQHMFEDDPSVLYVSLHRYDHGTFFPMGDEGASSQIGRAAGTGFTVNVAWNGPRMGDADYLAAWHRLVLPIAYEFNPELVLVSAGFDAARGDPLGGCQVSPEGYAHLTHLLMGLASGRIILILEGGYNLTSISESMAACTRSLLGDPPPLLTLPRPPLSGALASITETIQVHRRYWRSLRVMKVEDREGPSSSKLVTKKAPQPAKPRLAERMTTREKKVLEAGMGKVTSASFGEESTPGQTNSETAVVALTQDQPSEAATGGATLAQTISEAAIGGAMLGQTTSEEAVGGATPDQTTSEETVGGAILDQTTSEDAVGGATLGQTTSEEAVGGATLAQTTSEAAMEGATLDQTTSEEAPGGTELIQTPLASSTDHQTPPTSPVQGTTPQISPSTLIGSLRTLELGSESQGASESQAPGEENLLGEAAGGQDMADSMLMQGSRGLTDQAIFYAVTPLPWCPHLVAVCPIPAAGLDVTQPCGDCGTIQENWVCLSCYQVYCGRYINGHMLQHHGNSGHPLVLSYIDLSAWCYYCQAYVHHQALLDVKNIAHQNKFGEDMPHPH
# Assay: HDAC6 Enzyme Assay
# Type: biochemical
# Procedure, shortened: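 Deacetylated product quantified after trypsin digestion as released AMC (340/460 nm), following a 1 h, 30 °C reaction of human HDAC6 with Ac-RGK(Ac)-AMC peptide, quenched by trichostatin A. IC50 derived from DMSO-normalized curves.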
# [1] = purified human HDAC6, substrate Ac-Arg-Gly-Lys(Ac)-AMC, 1 hour at 30° C., reported as bins
# [2] = bin: greater than 500 nM and less than 1 μM (lower bound in nM, upper bound in μM)
IC50 [1] [nM],SMILES,also measured
< 100,"CC(C)[C@@H](NC(=O)C(C)(C)C)c1ccc(C(=O)NO)cc1 [Compound I-287, 4-{(1R)-1-[(2,2-dimethylpropanoyl)amino]-2-methylpropyl}-N-hydroxybenzamide]",–
100 to 500,"C[C@H](NC(=O)c1cc2ccccc2n1C)c1cccc(C(=O)NO)c1 [Compound I-294, N-((1S)-1-{3-[(hydroxyamino)carbonyl]phenyl}ethyl)-1-methyl-1H-indole-2-carboxamide]",–
–,"COc1cc(C(=O)NO)ccc1C(C)NC(=O)c1cccn1C (stereo not drawn) [Compound I-481, N-(1-{4-[(hydroxyamino)carbonyl]-2-methoxyphenyl}ethyl)-1-methyl-1H-pyrrole-2-carboxamide]",IC50 (bin: greater than 1 μM): > 1000 nM
100 to 500,"CC(C)C(NC(=O)c1ccc2ncsc2c1)c1ccc(C(=O)NO)cc1 (stereo not drawn) [Compound I-43, N-(1-{4-[(hydroxyamino)carbonyl]phenyl}-2-methylpropyl)-1,3-benzothiazole-6-carboxamide]",–
< 100,"CC(C)[C@@H](NC(=O)Nc1ccc2c(c1)CCO2)c1ccc(C(=O)NO)cc1 [Compound I-526, 4-((1R)-1-{[(2,3-dihydro-1-benzofuran-5-ylamino)carbonyl]amino}-2-methylpropyl)-N-hydroxybenzamide]",–
< 100,"CC(C)[C@@H](NC(=O)c1cc2ccccc2s1)c1ccc(C(=O)NO)cc1 [Compound I-214, N-((1R)-1-{4-[(hydroxyamino)carbonyl]phenyl}-2-methylpropyl)-1-benzothiophene-2-carboxamide]",–
100 to 500,"C[C@H](NC(=O)c1cc2ccccc2s1)c1cccc(C(=O)NO)c1 [Compound I-240, N-((1S)-1-{3-[(hydroxyamino)carbonyl]phenyl}ethyl)-1-benzothiophene-2-carboxamide]",–
–,"CCC[C@H](NC(=O)C(C)(C)C)c1ccc(C(=O)NO)cc1 [Compound I-536, 4-{(1S)-1-[(2,2-dimethylpropanoyl)amino]butyl}-N-hydroxybenzamide]",IC50 [2]: 500 to 1000 nM
100 to 500,"C[C@@H](NC(=O)c1cc2ccccc2n1C)c1cccc(C(=O)NO)c1 [Compound I-330, N-((1R)-1-{3-[(hydroxyamino)carbonyl]phenyl}ethyl)-1-methyl-1H-indole-2-carboxamide]",–
–,"COc1cc(C(=O)NO)ccc1C(C)NC(=O)C(C)(C)C (stereo not drawn) [Compound I-484, 4-{1-[(2,2-dimethylpropanoyl)amino]ethyl}-N-hydroxy-3-methoxybenzamide]",IC50 (bin: greater than 1 μM): > 1000 nM
100 to 500,"COc1ccc(C(=O)N[C@H](C)c2cccc(C(=O)NO)c2)cc1 [Compound I-193, N-hydroxy-3-{(1R)-1-[(4-methoxybenzoyl)amino]ethyl}benzamide]",–
–,"O=C(NO)c1ccc([C@@H](NC(=O)C23CC4CC(CC(C4)C2)C3)C2CC2)cc1 [Compound I-322, N-((S)-cyclopropyl{4-[(hydroxyamino)carbonyl]phenyl}methyl)adamantane-1-carboxamide]",IC50 (bin: greater than 1 μM): > 1000 nM
< 100,"Cc1cc(C)n2nc(C(=O)NC(C)c3ccc(C(=O)NO)cc3)cc2n1 (stereo not drawn) [Compound I-160, N-(1-{4-[(hydroxyamino)carbonyl]phenyl}ethyl)-5,7-dimethylpyrazolo[1,5-a]pyrimidine-2-carboxamide]",–
100 to 500,"CC(NC(=O)c1cccs1)c1cccc(C(=O)NO)c1 (stereo not drawn) [Compound I-267, N-(1-{3-[(hydroxyamino)carbonyl]phenyl}ethyl)thiophene-2-carboxamide]",–
100 to 500,"CC(NC(=O)NC1CCCCC1)c1ccc(C(=O)NO)cc1 (stereo not drawn) [Compound I-395, 4-(1-{[(cyclohexylamino)carbonyl]amino}ethyl)-N-hydroxybenzamide]",–
100 to 500,"C[C@@H](NCC1(C)CCCCC1)c1ccc(C(=O)NO)cc1 [Compound I-489, N-hydroxy-4-((1R)-1-{[(1-methylcyclohexyl)methyl]amino}ethyl)benzamide]",–
< 100,"Cc1ccc(NC(=O)NC(C)c2ccc(C(=O)NO)cc2)cc1Cl (stereo not drawn) [Compound I-103, 4-[1-({[(3-chloro-4-methylphenyl)amino]carbonyl}amino)ethyl]-N-hydroxybenzamide]",–

IC50 [1] [nM],SMILES,also measured
–,"CC(C)[C@H](NC(=O)C12CC3CC(CC(C3)C1)C2)c1ccc(C(=O)NO)cc1 [Compound I-157, N-((1S)-1-{4-[(hydroxyamino)carbonyl]phenyl}-2-methylpropyl)adamantane-1-carboxamide]",IC50 (bin: greater than 1 μM): > 1000 nM
–,"CC(C)C(NC(=O)c1ccnc2ccccc12)c1ccc(C(=O)NO)cc1 (stereo not drawn) [Compound I-246, N-(1-{4-[(hydroxyamino)carbonyl]phenyl}-2-methylpropyl)quinoline-4-carboxamide]",IC50 [2]: 500 to 1000 nM
100 to 500,"CC(C)[C@@H](NC(=O)C1(C)CCCCC1)c1ccc(C(=O)NO)cc1 [Compound I-126, N-hydroxy-4-((1R)-2-methyl-1-{[(1-methylcyclohexyl)carbonyl]amino}propyl)benzamide]",–
100 to 500,"CC(C)(C)C(NC(=O)c1cccs1)c1ccc(C(=O)NO)cc1 (stereo not drawn) [Compound I-215, N-(1-{4-[(hydroxyamino)carbonyl]phenyl}-2,2-dimethylpropyl)thiophene-2-carboxamide]",–
–,"Cc1noc(C)c1C(=O)NC(C)c1cccc(C(=O)NO)c1 (stereo not drawn) [Compound I-218, N-(1-{3-[(hydroxyamino)carbonyl]phenyl}ethyl)-3,5-dimethylisoxazole-4-carboxamide]",IC50 (bin: greater than 1 μM): > 1000 nM
< 100,"COc1ccc(C(=O)N[C@@H](c2ccc(C(=O)NO)cc2)C(F)(F)F)cc1 [Compound I-122, 4-methoxy-N-((1S)-2,2,2-trifluoro-1-{4-[(hydroxyamino)carbonyl]phenyl}ethyl)benzamide]",–
< 100,"CC(NC(=O)c1cccn1C)c1ccc(C(=O)NO)cc1 (stereo not drawn) [Compound I-356, N-(1-{4-[(hydroxyamino)carbonyl]phenyl}ethyl)-1-methyl-1H-pyrrole-2-carboxamide]",–
< 100,"CC(C)C(NC(=O)c1cnc2ccccc2n1)c1ccc(C(=O)NO)cc1 (stereo not drawn) [Compound I-190, N-(1-{4-[(hydroxyamino)carbonyl]phenyl}-2-methylpropyl)quinoxaline-2-carboxamide]",–
< 100,"C[C@@H](NC(=O)c1cccn1C)c1ccc(C(=O)NO)cc1 [Compound I-102, N-((1R)-1-{4-[(hydroxyamino)carbonyl]phenyl}ethyl)-1-methyl-1H-pyrrole-2-carboxamide]",–
100 to 500,"CC(NC(=O)c1csc2ccccc12)c1cccc(C(=O)NO)c1 (stereo not drawn) [Compound I-117, N-(1-{3-[(hydroxyamino)carbonyl]phenyl}ethyl)-1-benzothiophene-3-carboxamide]",–
< 100,"CCC[C@@H](NC(=O)c1cc2oc(-c3ccccc3)cc2n1C)c1ccc(C(=O)NO)cc1 [Compound I-222, N-((1R)-1-{4-[(hydroxyamino)carbonyl]phenyl}butyl)-4-methyl-2-phenyl-4H-furo[3,2-b]pyrrole-5-carboxamide]",–
< 100,"Cc1nc(C(=O)NC(C)c2ccc(C(=O)NO)cc2)cs1 (stereo not drawn) [Compound I-278, N-(1-{4-[(hydroxyamino)carbonyl]phenyl}ethyl)-2-methyl-1,3-thiazole-4-carboxamide]",–
–,"Cc1cc(C(=O)NC(C)c2ccc(C(=O)NO)cc2)nn1C (stereo not drawn) [Compound I-241, N-(1-{4-[(hydroxyamino)carbonyl]phenyl}ethyl)-1,5-dimethyl-1H-pyrazole-3-carboxamide]",IC50 (bin: greater than 1 μM): > 1000 nM
< 100,"C[C@H](NC(=O)c1cc2ccccc2s1)c1ccc(C(=O)NO)cc1 [Compound I-53, N-((1S)-1-{4-[(hydroxyamino)carbonyl]phenyl}ethyl)-1-benzothiophene-2-carboxamide]",–
–,"CC(C)(C)C(NC(=O)c1cccc(S(C)(=O)=O)c1)c1ccc(C(=O)NO)cc1 (stereo not drawn) [Compound I-75, N-(1-{4-[(hydroxyamino)carbonyl]phenyl}-2,2-dimethylpropyl)-3-(methylsulfonyl)benzamide]",IC50 [2]: 500 to 1000 nM
100 to 500,"CC(C)[C@@H](NC(=O)NC(C)(C)C)c1ccc(C(=O)NO)cc1 [Compound I-368, 4-((1R)-1-{[(tert-butylamino)carbonyl]amino}-2-methylpropyl)-N-hydroxybenzamide]",–
